# Experimental data from patent US5945508A, “Substance P treatment for immunostimulation” (priority 1997, dated 1999).
# Tests used:
# [1] = system: LP-BM5 murine leukemia retrovirus; assay: Spleen changes and total cell numbers, LP-BM5 mouse AIDS model; type: in vivo, C57BL6 mice
# Method: (§1) C57BL6 mice, average weight of 25-30 grams, were infected with the LP-BM5 murine leukemia retrovirus to simulate the human AIDS virus. […] The mice were divided into two groups; LP-BM5 virus only and LP-BM5 virus+substance P aerosol therapy at 1 μM concentration. The mice were killed at 4 and 8 weeks postinoculation.
# [2] = system: lymphocyte subpopulations; assay: Flow cytometric analyses (FACS); type: in vivo, C57B16 mice
# Method: At 24 hours after the last exposure, the animals were sacrificed and the effects of exposure on the immune system examined. Immune organs (spleen, thymus, blood, lymph nodes and bone marrow) were recovered and analyzed for effects on organ weight, total cell numbers, immune cell populations (by differentials), and lymphocyte subpopulations (by flow cytometry). Assays were also performed to examine the effects of exposure on immune function. […] Similar effects on immune cell subpopulations were also observed in lymph nodes. In the thymus it appeared that the immature CD4^+ CD8^+ cells were differentially lost due to exposure. […] However, these effects are prevented or ameliorated by treatment of the animals with Substance P.
# One- and two-color FACS analyses are performed using a Becton-Dickinson FACStar Plus flow cytometer. Cells are stained with the indicated monoclonal antibodies according to standard procedures (Harris et al., id). Cells alone and cells reacted with conjugated isotype control, irrelevant mAbs are used as controls. Data is presented as the percentage of cells staining positive for each individual mAb.
# interferon-gamma = assay: Spleen cytokine ELISA, LP-BM5 mouse AIDS model; type: in vivo, C57BL6 mice; details: SP aerosol 1 μM
# Method: as §1
# (§2) Spleen cytokine assays for interleukin-6 and interferon-gamma were conducted by standard mouse ELISA assays. The antibodies for IL-6 and interferon-gamma were purchased from Genzyme, Inc. and Collaborative Research, respectively. Briefly, flat bottom polyvinylchloride 96-well enzyme immunoassay plates were coated with […] monoclonal antibody in 0.05 ml bicarbonate buffer (pH 9.6) to each cytokine. After washing in phosphate-buffered saline containing 0.05% (v/v) Tween-20, plates were incubated in blocking reagent (1% bovine serum albumin in buffer). For the standard curves for each cytokine assay, serial dilutions of recombinant cytokine were added to a set of wells from anti-cytokine coated plates. After two hours at room temperature and three subsequent washings, biotinylated-anti-cytokine will be added to respective wells diluted 1:500 in blocking reagent. All plates were then incubated for an additional two hours at room temperature, washed three times, then […] of 1:5000 avidin-peroxidase was added. After an additional 3 washes, […] of the substrate mixture was added to each well (ABTS plus hydrogen peroxide solution). After an incubation at room temperature for 10-15 minutes, stopping reagent ([…] of a 12 g NaOH in 50 ml water solution) was added. Readings were taken at 405 nm with 490 nm reference using a microELISA spectrophotometric plate reader. Values of interluekin-6 and interferon-gamma were expressed as nanograms/ml.
# interleukin-6 = assay: Spleen cytokine ELISA, LP-BM5 mouse AIDS model; type: in vivo, C57BL6 mice; details: SP aerosol 1 μM
# Method: as §1, §2
# [3] = JP-8 1000 mg/m^3 + SP, nSP (1 nM), CP or RP
# [4] = 8 weeks post-infection with LP-BM5
substance,measurement,setting,value
Substance P [SP],total cell numbers (spleen) versus LP-BM5 group,"[1]; 4 weeks after LP-BM5 infection, SP aerosol 1 μM",not accompanied by an increase in total cell numbers
same,changes in the mouse spleens,"[1]; LP-BM5 mouse model, substance P aerosol therapy",significant changes in the mouse spleens
same,BM CD3 positive cells,[2]; JP-8 250 mg/m^3 + SP,13%
same,BM CD4 positive cells,[2]; JP-8 250 mg/m^3 + SP,10%
same,BM CD8 positive cells,[2]; JP-8 250 mg/m^3 + SP,3%
same,BM CD45 positive cells,[2]; JP-8 250 mg/m^3 + SP,48%
same,BM MAC1 positive cells,[2]; JP-8 250 mg/m^3 + SP,10%
same,LN CD3 positive cells,[2]; JP-8 250 mg/m^3 + SP,85%
same,LN CD4 positive cells,[2]; JP-8 250 mg/m^3 + SP,48%
same,LN CD8 positive cells,[2]; JP-8 250 mg/m^3 + SP,12%
same,LN CD45 positive cells,[2]; JP-8 250 mg/m^3 + SP,13%
same,LN MAC1 positive cells,[2]; JP-8 250 mg/m^3 + SP,1%
same,PBL CD3 positive cells,[2]; JP-8 250 mg/m^3 + SP,59%
same,PBL CD4 positive cells,[2]; JP-8 250 mg/m^3 + SP,15%
same,PBL CD8 positive cells,[2]; JP-8 250 mg/m^3 + SP,6%
same,PBL CD45 positive cells,[2]; JP-8 250 mg/m^3 + SP,16%
same,PBL MAC1 positive cells,[2]; JP-8 250 mg/m^3 + SP,1%
same,Spleen CD3 positive cells,[2]; JP-8 250 mg/m^3 + SP,62%
same,Spleen CD4 positive cells,[2]; JP-8 250 mg/m^3 + SP,27%
same,Spleen CD8 positive cells,[2]; JP-8 250 mg/m^3 + SP,3%
same,Spleen CD45 positive cells,[2]; JP-8 250 mg/m^3 + SP,21%
same,Spleen MAC1 positive cells,[2]; JP-8 250 mg/m^3 + SP,1%
same,Thymus CD3 positive cells,[2]; JP-8 250 mg/m^3 + SP,24%
same,Thymus DN cells,[2]; JP-8 250 mg/m^3 + SP,5%
same,Thymus DP cells,[2]; JP-8 250 mg/m^3 + SP,68%
same,Thymus SP4 cells,[2]; JP-8 250 mg/m^3 + SP,22%
same,Thymus SP8 cells,[2]; JP-8 250 mg/m^3 + SP,5%
same,BM CD3 positive cells,[2]; [3],14%
same,BM CD4 positive cells,[2]; [3],9%
same,BM CD8 positive cells,[2]; [3],2%
same,BM CD45 positive cells,[2]; [3],31%
same,BM MAC1 positive cells,[2]; [3],26%
same,LN CD3 positive cells,[2]; [3],86%
same,LN CD4 positive cells,[2]; [3],29%
same,LN CD8 positive cells,[2]; [3],11%
same,LN CD45 positive cells,[2]; [3],22%
same,LN MAC1 positive cells,[2]; [3],0%
same,PBL CD3 positive cells,[2]; [3],61%
same,PBL CD4 positive cells,[2]; [3],23%
same,PBL CD8 positive cells,[2]; [3],10%
same,PBL CD45 positive cells,[2]; [3],22%
same,PBL MAC1 positive cells,[2]; [3],3%
same,Spleen CD3 positive cells,[2]; [3],34%
same,Spleen CD4 positive cells,[2]; [3],18%
same,Spleen CD8 positive cells,[2]; [3],10%
same,Spleen CD45 positive cells,[2]; [3],20%
same,Spleen MAC1 positive cells,[2]; [3],5%
same,Thymus CD3 positive cells,[2]; [3],20%
same,Thymus DN cells,[2]; [3],10%
same,Thymus DP cells,[2]; [3],65%
same,Thymus SP4 cells,[2]; [3],16%
same,Thymus SP8 cells,[2]; [3],6%
same,BM CD3 positive cells,[2]; JP-8 2500 mg/m^3 + SP,6%
same,BM CD4 positive cells,[2]; JP-8 2500 mg/m^3 + SP,3%
same,BM CD8 positive cells,[2]; JP-8 2500 mg/m^3 + SP,6%
same,BM CD45 positive cells,[2]; JP-8 2500 mg/m^3 + SP,24%
same,BM MAC1 positive cells,[2]; JP-8 2500 mg/m^3 + SP,34%
same,Spleen CD3 positive cells,[2]; JP-8 2500 mg/m^3 + SP,38%
same,Spleen CD4 positive cells,[2]; JP-8 2500 mg/m^3 + SP,26%
same,Spleen CD8 positive cells,[2]; JP-8 2500 mg/m^3 + SP,14%
same,Spleen CD45 positive cells,[2]; JP-8 2500 mg/m^3 + SP,31%
same,Spleen MAC1 positive cells,[2]; JP-8 2500 mg/m^3 + SP,3%
same,Thymus CD3 positive cells,[2]; JP-8 2500 mg/m^3 + SP,16%
same,Thymus DN cells,[2]; JP-8 2500 mg/m^3 + SP,19%
same,Thymus DP cells,[2]; JP-8 2500 mg/m^3 + SP,64%
same,Thymus SP4 cells,[2]; JP-8 2500 mg/m^3 + SP,15%
same,Thymus SP8 cells,[2]; JP-8 2500 mg/m^3 + SP,5%
same,BM CD3 positive cells,[2]; dose 0 (no JP-8) + SP or CP,12%
same,BM CD4 positive cells,[2]; dose 0 (no JP-8) + SP or CP,11%
same,BM CD8 positive cells,[2]; dose 0 (no JP-8) + SP or CP,1%
same,BM CD45 positive cells,[2]; dose 0 (no JP-8) + SP or CP,48%
same,Spleen CD3 positive cells,[2]; dose 0 (no JP-8) + SP or CP,42%
same,Spleen CD4 positive cells,[2]; dose 0 (no JP-8) + SP or CP,26%
same,Spleen CD8 positive cells,[2]; dose 0 (no JP-8) + SP or CP,11%
same,Spleen CD45 positive cells,[2]; dose 0 (no JP-8) + SP or CP,23%
same,Spleen MAC1 positive cells,[2]; dose 0 (no JP-8) + SP or CP,1%
same,Thymus CD3 positive cells,[2]; dose 0 (no JP-8) + SP or CP,10%
same,Thymus DN cells,[2]; dose 0 (no JP-8) + SP or CP,7%
same,Thymus DP cells,[2]; dose 0 (no JP-8) + SP or CP,84%
same,Thymus SP4 cells,[2]; dose 0 (no JP-8) + SP or CP,6%
same,Thymus SP8 cells,[2]; dose 0 (no JP-8) + SP or CP,2%
same,Spleen Cytokine Production Interferon-Gamma,interferon-gamma; 4 weeks after LP-BM5 infection,1.5188 (0.21) nanogram/ml
same,Spleen Cytokine Production Interferon-Gamma,interferon-gamma; [4],1.072 (0.09) nanogram/ml
same,Spleen Cytokine Production Interleukin-6,interleukin-6; 4 weeks after LP-BM5 infection,0.1334 (0.02) nanogram/ml
same,Spleen Cytokine Production Interleukin-6,interleukin-6; [4],0.1480 (0.02) nanogram/ml
